Assay results: US9726659B2, “CMPF as a biomarker for diabetes and associated methods” (The Governing Council of the University of Toronto, priority 2012, dated 2017)

Experiments:
MIN6 cells = test: Glucose- and KCl-stimulated insulin secretion in MIN6 cells; format: cell-based, murine; settings: 200 uM
Experimental: LG=2.8 mM glucose, HG=16.7 mM glucose, KCl=16.7 mM glucose+30 mM KCl. *p<0.05.
Since beta cell failure is a major underlying cause of both GDM and T2D, the effect of increased CMPF on beta cell function was investigated both in vitro and in vivo. Using physiological concentrations of CMPF (20 uM and 200 uM, as observed in our NGT-pregnant and GDM-pregnant samples respectively (FIG. 2)), as well as a vehicle control (EtOH), its effect was studied on glucose-stimulated insulin secretion (GSIS) and insulin secretion in response to direct depolarization using the secretagogue KCl in an immortalized murine beta cell line (MIN6), as well as primary isolated human and murine islets (FIG. 3A). […] Therefore, high physiologically relevant levels of CMPF impair GSIS.

human islets = test: Total insulin content in human islets; format: cell-based; settings: 200 uM, 24 hrs, vs vehicle
Experimental: In the absence of apoptosis and necrosis, CMPF must be impairing GSIS by causing beta cell dysfunction. First, the effect of CMPF treatment on insulin biosynthesis was investigated to determine if insulin is available to be released upon stimulation. MIN6, murine and human islets were treated with vehicle control, 20 uM and 200 uM CMPF for 4 hrs (MIN6) or 24 hrs (islets), and total insulin content measured. […] Lower total insulin content may be due to either defective insulin processing from proinsulin to mature insulin, or insufficient insulin transcription. To determine the mechanism through which CMPF is reducing total insulin content, quantitative PCR (qPCR) was performed on RNA that was isolated from murine islets treated with either vehicle control or 200 uM CMPF for 24 hrs.

Q: What does the source list for `CCCc1oc(CCC(=O)O)c(C(=O)O)c1C` [CMPF, 3-carboxy-4-methyl-5-propyl-2-furanpropanoic acid]?
A: KCl-stimulated insulin secretion (MIN6 cells; 4 hour pre-incubation): significantly impairs; glucose-stimulated insulin secretion (GSIS) (MIN6 cells; 4 hour pre-treatment, vs 20 uM and vehicle): significantly impaired; total insulin content (human islets): significantly reduced
